{"source": "patent US12005122B2", "about": "“Compounds and methods for diagnosis and treatment of viral infections” (priority 2016, dated 2024)", "key": {"Zika virus [1]": {"tested_on": "Zika virus", "assay": "Zika virus plaque assay on Vero cells", "type": "cell-based", "details": "Vero cells infected with Zika virus"}, "Zika virus [2]": {"tested_on": "Zika virus", "assay": "Percent infectivity of Zika-infected VERO cells (FIG. 5)", "type": "cell-based", "details": "FIGS. 4 and 5; 5 μM and 1 μM"}}, "data": [{"substance": "dextran 3-[(2-aminoethyl)thio]propyl 17-carboxy-10,13,16-tris(carboxymethyl)-8-oxo-4-thia-7,10,13,16-tetraazaheptadec-1-yl 3-[[2-[[1-imino-2-(D-mannopyranosylthio)ethyl]amino]ethyl]thio]propyl ether complexes [Tilmanocept]", "values": [{"measurement": "Reduction of Zika virus in infected Vero cells", "setting": "Zika virus [1]", "value": 99.9, "unit": "%"}, {"measurement": "Effect on Zika infection of VERO cells", "setting": "Zika virus [2]", "value": "no effect"}]}]}
